Earlier results on one compound are cited in patent US20190046547A1, “COMPOSITIONS AND METHODS FOR TREATING CHRONIC WOUNDS” (Hackensack University Medical Center, priority 2016, published 2019).

The data set concerns infected pneumonectomy cavity. The conditions noted are these: single case.

As for `OC[C@H]1O[C@@](CO)(O[C@H]2O[C@H](CO)[C@@H](O)[C@H](O)[C@H]2O)[C@@H](O)[C@@H]1O` [granulated sugar], the adverse events entry is “severe hyponatremia and acute renal failure”.
